# Measurements reported in patent publication US20260109707A1, “HETEROBIFUNCTIONAL COMPOUNDS AND METHODS OF TREATING DISEASE” (Halda Therapeutics OpCo. Inc., priority 2022, published 2026).
# Read-outs that look alike come from different tables or passages of the source.
# Tests used:
# [1] = test system: T-Rex 293 cell line SC3 cells lacking increased expression of androgen receptor protein; test: Cellular growth inhibition assay, T-Rex 293 SC3 cells without doxycycline (CellTiter-Glo, 72 hours); type: cell-based; settings: T-Rex 293 cell line SC3 cells not exposed to doxycycline (lacking increased androgen receptor expression)
# In short: (§1)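 Doxycycline (10 ng/mL) was either included or omitted to toggle wild-type androgen receptor expression in SC3 cells, a T-Rex 293 clone, grown in stripped-serum, phenol red-free medium. After 72 hours with compound, viable cells were quantified by CellTiter-Glo 2.0.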
# VCaP cells = test: Cellular growth inhibition assay for VCaP cells (CellTiter-Glo, 72 hours); type: cell-based, human
# In short: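 Luminescent viability signal after 72 h of compound exposure gave GI50 values by four-parameter nonlinear regression. Compounds were added in 0.5% DMSO to cells plated 24 h earlier at 5000/well in DMEM containing 10% FBS.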
# T47D cells = test: Cellular growth inhibition assay for T47D cells (CellTiter-Glo, 72 hours); type: cell-based, human; settings: 72 hours treatment
# In short: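 Growth inhibition as GI50, fitted with four parameters to CellTiter-Glo luminescence after 72 h of compound exposure (0.5% DMSO). Cells were T47D, grown in insulin-supplemented (0.2 units/mL) DMEM with 10% FBS and treated one day post-seeding.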
# [2] = Cellular growth inhibition assay, T-Rex 293 SC cells with doxycycline (CellTiter-Glo, 72 hours); type: cell-based; settings: T-Rex 293 SC cells with doxycycline (increased progesterone receptor isoform B)
# Protocol: (§2) The following types of cells were prepared for this experiment: (i) a T-Rex 293 cell line having increased expression of progesterone receptor isoform B protein due to exposure to doxycycline and (ii) a T-Rex 293 cell line lacking increased expression of progesterone receptor isoform B protein. Ability of the test compounds to inhibit proliferation of the foregoing cell types was evaluated according to the procedures set forth below.
# (§3) The doxycycline-inducible progesterone receptor isoform B protein expressing cell line was established using the following protocol: T-Rex 293 cells were purchased from Invitrogen (Cat #R71007) and transfected using Lipofectamine 2000 with the wild-type progesterone receptor B protein sequence cloned into the pcDNA4/TO vector. Transfected cells were selected using 400 μg/mL Zeocin (Invitrogen Cat #R25001). Following selection, single clones were raised and maintained in Dulbecco's Modified Eagle Medium (DMEM) supplemented with 10% w/w Tetracycline-free fetal bovine serum (FBS) and 250 μg/mL Zeocin. Clones were analyzed for expression of progesterone receptor isoform B protein in the presence and absence of 10 ng/mL doxycycline (Sigma Cat #D9891), and a single doxycycline-inducible clone (hereinafter “SC”) was selected for use in downstream assays.
# (§4) The SC cells were seeded on poly-D-lysine coated, black clear-bottom 384-well plates at 2500/well, in 25 μL Phenol Red Free Dulbecco's Modified Eagle Medium (DMEM) supplemented with 10% w/w charcoal-dextran treated fetal bovine serum (FBS) and 1% w/w pen-strep, with or without 10 ng/mL doxycycline. Pen-Strep is a commercially available mixture of penicillin G and streptomycin, which is used in mammalian cell culture media to prevent bacterial contamination. Phenol Red Free Dulbecco's Modified Eagle Medium (DMEM) supplemented with 10% w/w charcoal-dextran treated fetal bovine serum (FBS) and 1% w/w pen-strep, with or without 10 ng/mL doxycycline is herein referred to as Treatment Medium. Following seeding of cells in the plates, the plates were spun at 300×g for 30 seconds, then equilibrated to room temperature for 30 minutes, and then deposited in a humidified tissue culture incubator maintained at 37° C. with 5% CO2.
# (§5) At 24 hours after seeding of the cells, dilutions of test compound were prepared in DMSO and dissolved in Treatment Medium, to achieve a final DMSO concentration of 0.5% w/w, thereby providing the Test Compound Solution. A 25 μL aliquot of the Test Compound Solution was added to cells in the well plates. An equal volume of a solution containing DMSO and Treatment Medium was used as a negative control. Following treatment of cells with Test Compound Solution or said equal volume of a solution containing DMSO and Treatment Medium, the plates were spun at 300×g for 30 seconds, and then left in an incubator for 72 hours.
# (§6) At the end of the treatment duration, cell viability was quantified with CellTiter-Glo 2.0 reagent (Promega Cat #G9243). For this purpose, plates were equilibrated to room temperature for 30 minutes, and then 25 μL of CellTiter-Glo 2.0 reagent was added to cells in the plate wells. Plates were then agitated on a shaker for two minutes at 500 rpm and subsequently incubated at room temperature for 10 minutes. Following incubation, the plates were spun at 3000×g for 30 seconds, then sealed with an optical adhesive cover, and luminescence readings were measured with an EnVision Plate Reader (Perkin Elmer).
# (§7) Data was normalized using zero luminescence for baseline. A four-parameter non-linear regression curve fit was applied to dose-response data in GraphPad Prism data analysis software to determine the half-maximal growth inhibitory concentration (GI50) for each test compound.
# [3] = test system: T-Rex 293 cell line SC3 cells having increased expression of androgen receptor protein due to exposure to doxycycline; test: Cellular growth inhibition assay, T-Rex 293 SC3 cells with doxycycline (CellTiter-Glo, 72 hours); type: cell-based; settings: T-Rex 293 SC3 cells with increased androgen receptor expression due to doxycycline (10 ng/mL)
# In short: as §1
# [4] = test system: T-Rex 293 cell line SC cells lacking increased expression of progesterone receptor isoform B protein; test: Cellular growth inhibition assay, T-Rex 293 SC cells without doxycycline (CellTiter-Glo, 72 hours); type: cell-based; settings: T-Rex 293 SC cells not exposed to doxycycline
# Protocol: as §2, §3, §4, §5, §6, §7
Compound,"GI50 (VCaP cells; Homo sapiens, VCaP, 72 h) [nM]","GI50 (T47D cells; Homo sapiens, T47D, 72 h) [nM]",GI50 (VCaP cells) [nM],GI50 (T47D cells) [nM],GI50 ([1]; 72 h) [nM],GI50 [2] [nM],GI50 ([3]; 72 h) [nM],GI50 [4] [nM],GI50 [1] [nM],GI50 [3] [nM]
Cc1sc2c(c1C)C(c1ccc(C(C)(C)C3CC4(CCCN(c5ccc(C(=O)N[C@H]6CC[C@H](Oc7ccc(C#N)c(Cl)c7)CC6)nn5)C4)C3)cc1)=N[C@@H](C)c1nnc(C)n1-2 (stereo partly drawn) [I-423],> 3000,500 to 1500,,,1500 to 3000,,< 500,,,
Cc1sc2c(c1C)C(c1ccc(OCC3CC4(CCCN(c5ccc(C(=O)N[C@H]6CC[C@H](Oc7ccc(C#N)c(Cl)c7)CC6)nn5)C4)C3)nc1)=N[C@@H](C)c1nnc(C)n1-2 (stereo partly drawn) [I-425],,,< 500,500 to 1500,,,,,500 to 1500,< 500
Cc1sc2c(c1C)C(c1ccc(N3CCC4(CCCN(c5ccc(C(=O)N[C@H]6CC[C@H](Oc7ccc(C#N)c(Cl)c7)CC6)nn5)C4)CC3)cc1)=N[C@@H](C)c1nnc(C)n1-2 [I-429],,,< 500,> 3000,,,,,> 3000,< 500
Cc1sc2c(c1C)C(c1ccc(N3CCC4(CC3)CCN(c3ccc(C(=O)N[C@H]5CC[C@H](Oc6ccc(C#N)c(Cl)c6)CC5)nn3)C4)cc1)=N[C@@H](C)c1nnc(C)n1-2 [I-430],,,< 500,< 500,,,,,< 500,< 500
Cc1sc2c(c1C)C(c1ccc(OC3CC4(CCN(c5ccc(C(=O)N[C@H]6CC[C@H](Oc7ccc(C#N)c(Cl)c7)CC6)nn5)CC4)C3)nc1)=N[C@@H](C)c1nnc(C)n1-2 [I-433],,500 to 1500,> 3000,,,,< 500,,500 to 1500,
Cc1sc2c(c1C)C(c1ccc(N3CC(C4CCN(c5ccc(C(=O)N[C@H]6CC[C@H](Oc7ccc(C#N)c(Cl)c7)CC6)nn5)CC4)C3)cc1)=N[C@@H](C)c1nnc(C)n1-2 [I-434],< 500,500 to 1500,,,< 500,,< 500,,,
Cc1sc2c(c1C)C(c1ccc(OC3CC4(C3)CC3(CCN(c5ccc(C(=O)N[C@H]6CC[C@H](Oc7ccc(C#N)c(Cl)c7)CC6)nn5)CC3)C4)cc1)=N[C@@H](C)c1nnc(C)n1-2 [I-435],< 500,> 3000,,,> 3000,,< 500,,,
Cc1sc2c(c1C)C(c1ccc(OC3CC4(C3)CC3(CCN(c5ccc(C(=O)N[C@H]6CC[C@H](Oc7ccc(C#N)c(Cl)c7)CC6)nn5)CC3)C4)nc1)=N[C@@H](C)c1nnc(C)n1-2 [I-436],< 500,500 to 1500,,,> 3000,,< 500,,,
Cc1sc2c(c1C)C(c1ccc(C3CC(N4CCN(c5ccc(C(=O)N[C@H]6CC[C@H](Oc7ccc(C#N)c(Cl)c7)CC6)nn5)CC4)C3)cc1)=N[C@@H](Cc1ncco1)c1nnc(C)n1-2 (stereo partly drawn) [I-437],< 500,< 500,,,< 500,,< 500,,,
Cc1sc2c(c1C)C(c1ccc(CCC3CC4(CCCC(c5ccc(C(=O)N[C@H]6CC[C@H](Oc7ccc(C#N)c(Cl)c7)CC6)nn5)C4)C3)nc1)=N[C@@H](Cc1ncco1)c1nnc(C)n1-2 (stereo partly drawn) [I-438],< 500,500 to 1500,,,< 500,,< 500,,,
Cc1sc2c(c1C)C(c1ccc(CCC3CC4(CCCC(c5ccc(C(=O)N[C@H]6CC[C@H](Oc7ccc(C#N)c(Cl)c7)CC6)nn5)C4)C3)nc1)=N[C@@H](Cc1ncco1)c1nnc(C)n1-2 (stereo partly drawn) [I-439],,,500 to 1500,500 to 1500,,,,,< 500,< 500
Cc1sc2c(c1C)C(c1ccc(C(C)(C)CN3CC4(CCCN(c5ccc(C(=O)N[C@H]6CC[C@H](Oc7ccc(C#N)c(Cl)c7)CC6)nn5)C4)C3)cc1)=N[C@@H](Cc1ncco1)c1nnc(C)n1-2 [I-440],< 500,500 to 1500,,,500 to 1500,,< 500,,,
Cc1sc2c(c1C)C(c1ccc(COC3(C)CC4(CN(c5ccc(C(=O)N[C@H]6CC[C@H](Oc7ccc(C#N)c(Cl)c7)CC6)nn5)C4)C3)cc1)=N[C@@H](Cc1ncco1)c1nnc(C)n1-2 [I-441],< 500,< 500,,,< 500,,< 500,,,
Cc1sc2c(c1C)C(c1ccc(-c3coc(C4CCN(c5ccc(C(=O)N[C@H]6CC[C@H](Oc7ccc(C#N)c(Cl)c7)CC6)nn5)CC4)n3)cc1)=NC(Cc1ncco1)c1nnc(C)n1-2 (stereo partly drawn) [I-442],,,< 500,< 500,,,,,< 500,< 500

# The next lines start with results.
"GI50 (VCaP cells; Homo sapiens, VCaP, 72 h) [nM]","GI50 (T47D cells; Homo sapiens, T47D, 72 h) [nM]",GI50 (VCaP cells) [nM],GI50 (T47D cells) [nM],Compound,GI50 ([1]; 72 h) [nM],GI50 [2] [nM],GI50 ([3]; 72 h) [nM],GI50 [4] [nM],GI50 [1] [nM],GI50 [3] [nM]
< 500,< 500,,,CCNC(=O)C[C@@H]1N=C(c2ccc(OCCC3CCN(c4ccc(C(=O)N[C@H]5CC[C@H](Oc6ccc(C#N)c(Cl)c6)CC5)nn4)CC3)cc2)c2c(sc(C)c2C)-n2c(C)nnc21 [I-13],< 500,< 500,< 500,< 500,,
< 500,< 500,,,CCNC(=O)C[C@@H]1N=C(c2ccc(OCCN3CCN(c4ccc(C(=O)N[C@H]5CC[C@H](Oc6ccc(C#N)c(Cl)c6)CC5)nn4)CC3)cc2)c2c(sc(C)c2C)-n2c(C)nnc21 [I-25],500 to 1500,< 500,< 500,500 to 1500,,
< 500,< 500,,,CCNC(=O)C[C@@H]1N=C(c2ccc(OC3CCN(c4ccc(C(=O)N[C@H]5CC[C@H](Oc6ccc(C#N)c(Cl)c6)CC5)nn4)CC3)cc2)c2c(sc(C)c2C)-n2c(C)nnc21 [I-26],500 to 1500,< 500,< 500,< 500,,
< 500,500 to 1500,,,Cc1sc2c(c1C)C(c1ccc(OCC3CC4(CCCN(c5ccc(C(=O)N[C@H]6CC[C@H](Oc7ccc(C#N)c(Cl)c7)CC6)nn5)C4)C3)nc1)=N[C@@H](C)c1nnc(C)n1-2 (stereo partly drawn) [I-424],,,< 500,,> 3000,
< 500,500 to 1500,,,Cc1sc2c(c1C)C(c1ccc(C#CC3CC4(C3)CN(c3ccc(C(=O)N[C@H]5CC[C@H](Oc6ccc(C#N)c(Cl)c6)CC5)nn3)C4)nc1)=N[C@@H](C)c1nnc(C)n1-2 [I-426],< 500,,< 500,,,
< 500,,,500 to 1500,Cc1sc2c(c1C)C(c1ccc(N3CCC4(CCCN(c5ccc(C(=O)N[C@H]6CC[C@H](Oc7ccc(C#N)c(Cl)c7)CC6)nn5)C4)CC3)cc1)=N[C@@H](C)c1nnc(C)n1-2 [I-427],,,< 500,,500 to 1500,
< 500,500 to 1500,,,Cc1sc2c(c1C)C(c1ccc(N3CCC4(CCCN(c5ccc(C(=O)N[C@H]6CC[C@H](Oc7ccc(C#N)c(Cl)c7)CC6)nn5)C4)CC3)nc1)=N[C@@H](C)c1nnc(C)n1-2 [I-428],> 3000,,< 500,,,
